Active and inactive are the calls of the source. Cut-off read from the data, not from the text of the source, for most assays here: actives have a measured EC50 and inactives only a lower limit.
Experiments:
[1] = target: T1, Carboxy-terminal domain RNA polymerase II polypeptide A small phosphatase 1 (Homo sapiens, UniProt Q9GZU7); experiment: inhibitors of CTDSP1, concentration-response testing, biochemical assay, absorbance-based, actives from ultra-high-throughput screening (AID 540297); assay type: functional
T1 sequence (Q9GZU7 whole entry): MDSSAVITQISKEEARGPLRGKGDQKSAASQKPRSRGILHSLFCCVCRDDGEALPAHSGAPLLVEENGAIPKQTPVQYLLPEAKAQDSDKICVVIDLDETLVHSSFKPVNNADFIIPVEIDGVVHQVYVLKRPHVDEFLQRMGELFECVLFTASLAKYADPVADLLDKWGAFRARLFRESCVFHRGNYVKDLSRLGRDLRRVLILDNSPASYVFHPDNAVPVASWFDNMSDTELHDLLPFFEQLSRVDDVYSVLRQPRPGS

[2] = target: Genome polyprotein (dengue virus type 2, UniProt P29990); experiment: Dengue-2 NS5 methyltransferase inhibitors, primary screen, biochemical, confirmation dose response (AID 588689); assay type: functional
[3] = Luminescence Cell-Based Dose Confirmation HTS to Identify Inhibitors of Platelet Dense Granule Release. [Related pubchem assays: 1663 (Primary HTS), 1678 (Summary of Project)]; assay type: functional
[4] = target: Luciferin 4-monooxygenase (Photinus pyralis, UniProt P08659); experiment: firefly luciferase enzyme inhibitors, dose response, biochemical, luminescence (AID 1891)
[5] = inhibitors of intracellular T. cruzi replication, confirmation, NIH3T3 host cells, beta-gal luminescence (AID 2044); assay type: functional, cell-based;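 note: intracellular parasites grown in NIH/3T3 mouse fibroblasts as host cells; luminescent beta-galactosidase reporter signal from transgenic T. cruzi replicating inside host cells; inhibitors lower the luminescence signal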
[6] = cytotoxicity toward NIH3T3 fibroblasts, dose response, counter-screen, cell-based, ATP luminescence, mouse fibroblasts (AID 2010); assay type: functional;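 note: cells exposed to compound for about 90 hours before reading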
[7] = HEp-2 cell cytotoxicity, dose response, cytotoxicity control for RSV inhibitor project, HTS (AID 2410); assay type: functional; details: human respiratory syncytial virus

Luciferin 4-monooxygenase, sequence (P08659 whole entry): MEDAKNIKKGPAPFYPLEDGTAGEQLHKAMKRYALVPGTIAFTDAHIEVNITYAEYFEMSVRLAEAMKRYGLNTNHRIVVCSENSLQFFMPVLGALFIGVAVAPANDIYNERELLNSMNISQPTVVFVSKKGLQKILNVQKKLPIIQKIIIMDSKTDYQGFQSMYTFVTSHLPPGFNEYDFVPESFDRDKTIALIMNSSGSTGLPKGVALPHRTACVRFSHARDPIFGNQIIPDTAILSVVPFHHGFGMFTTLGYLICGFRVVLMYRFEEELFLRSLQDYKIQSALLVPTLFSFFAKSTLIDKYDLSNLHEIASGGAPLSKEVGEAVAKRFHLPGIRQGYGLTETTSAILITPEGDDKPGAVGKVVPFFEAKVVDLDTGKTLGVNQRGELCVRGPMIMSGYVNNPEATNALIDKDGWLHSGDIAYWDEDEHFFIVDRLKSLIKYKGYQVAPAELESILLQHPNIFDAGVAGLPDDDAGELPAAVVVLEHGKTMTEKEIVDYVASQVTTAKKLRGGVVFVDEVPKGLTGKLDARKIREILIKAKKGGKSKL
Genome polyprotein, sequence (P29990 2492-3391 limits assumed): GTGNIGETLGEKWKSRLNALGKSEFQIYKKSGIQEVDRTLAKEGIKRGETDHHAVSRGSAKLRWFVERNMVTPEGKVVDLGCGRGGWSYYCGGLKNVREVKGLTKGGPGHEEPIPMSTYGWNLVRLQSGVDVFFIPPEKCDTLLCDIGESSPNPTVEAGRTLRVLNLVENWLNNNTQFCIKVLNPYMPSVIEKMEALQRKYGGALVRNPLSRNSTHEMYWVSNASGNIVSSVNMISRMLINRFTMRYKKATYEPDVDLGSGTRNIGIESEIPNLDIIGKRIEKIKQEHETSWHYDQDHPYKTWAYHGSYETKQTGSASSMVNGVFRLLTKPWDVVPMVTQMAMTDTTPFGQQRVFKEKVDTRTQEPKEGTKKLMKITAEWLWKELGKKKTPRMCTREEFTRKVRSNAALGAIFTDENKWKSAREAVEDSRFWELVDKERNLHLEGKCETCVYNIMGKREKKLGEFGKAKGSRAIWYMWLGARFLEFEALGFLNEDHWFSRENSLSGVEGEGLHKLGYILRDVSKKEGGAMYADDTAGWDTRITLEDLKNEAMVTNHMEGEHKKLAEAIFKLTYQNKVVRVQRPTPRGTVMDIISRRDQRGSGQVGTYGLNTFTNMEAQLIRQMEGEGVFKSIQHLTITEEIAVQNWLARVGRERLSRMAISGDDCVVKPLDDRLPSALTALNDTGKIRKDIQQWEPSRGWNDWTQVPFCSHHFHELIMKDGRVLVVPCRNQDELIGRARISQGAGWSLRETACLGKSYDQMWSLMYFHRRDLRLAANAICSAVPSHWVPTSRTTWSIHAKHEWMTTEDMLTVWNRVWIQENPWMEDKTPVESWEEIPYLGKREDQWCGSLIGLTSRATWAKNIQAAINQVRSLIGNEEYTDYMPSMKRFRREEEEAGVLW

Compound	IC50 [1]	EC50 [3]	EC50 [4]	also measured
O=C(O)c1ccc(CNc2ccccc2C(=O)O)cc1	25.3 µM (active)			
O=C(CCN1C(=O)/C(=C/c2ccc3c(c2)OCO3)SC1=S)Nc1cccc(C(=O)O)c1	6.78 µM (active)			IC50 [2]: 47 µM (active)
Cc1ccc2[nH]c(/C(C#N)=C/c3ccc(-c4ccccc4C(=O)O)o3)nc2c1	17 µM (active)			
O=C(c1ccccc1)c1ccc2[nH]c(-c3ccc(NC(=O)c4ccccc4F)cc3)nc2c1		> 112 µM (not active)	> 112 µM (not active)	
O=C(Nc1cccc(N2CCCC2)c1)c1cccs1		> 112 µM (not active)	> 112 µM (not active)	EC50 [5]: 4.67 µM (active); EC50 [6]: > 60 µM (not active)
O=C(CN(CCCN1CCOCC1)C(=O)Cn1nnc(-c2ccc(F)cc2)n1)NC1CCCCC1		> 112 µM (not active)	> 112 µM (not active)	
O=C1c2ccccc2C(Nc2ccc3c(c2)OCO3)N1Cc1ccco1 (stereo unspecified)		> 112 µM (not active)	> 112 µM (not active)	
COC(=O)c1ccc(C)c(NC(=O)CSc2sc3c(O)cc(=O)[nH]c3c2C#N)c1	3.04 µM (active)			
CCc1ccc(-c2cc(C)no2)cc1S(=O)(=O)N1CCN(c2ccccc2OC)CC1		> 112 µM (not active)	> 112 µM (not active)	
Cc1ccc(C2CC(c3ccccc3)=NN2C(=O)CSc2nnc(-c3ccc(Cl)cc3)o2)o1 (stereo unspecified)		> 112 µM (not active)	> 112 µM (not active)	
COc1ccc(Cl)cc1C=CC=NNC(=O)c1ccncc1	18.9 µM (active)			
C=C(C)CNC(=S)N/N=C(\C)c1ccc(OC)cc1		30.5 µM (active)	> 112 µM (not active)	
C/C(=N\NC(=O)c1ccc(NS(=O)(=O)c2cccs2)cc1)c1ccc2ccccc2c1		> 112 µM (not active)	> 112 µM (not active)	CC50 [7]: 16.7 µM (active)
N#Cc1c(/N=C/c2ccc(-c3ccccc3C(=O)O)o2)sc2c1CCCC2	9.17 µM (active)			

Source: ChEMBL document CHEMBL1201862, “PubChem BioAssay data set” (2004)
